Data on two molecules can be found in patent US20130172320A1, “PYRIDO [4,3-B] INDOLE AND PYRIDO [3,4-B] INDOLE DERIVATIVES AND METHODS OF USE” (priority 2010, published 2013).

The target in test [1] is T1, human recombinant adrenergic α1D receptor (Homo sapiens, UniProt P25100).
T1 construct: expressed in transfected cells; host or cells: human embryonic kidney (HEK-293) cells
T1 sequence (P25100 1-572): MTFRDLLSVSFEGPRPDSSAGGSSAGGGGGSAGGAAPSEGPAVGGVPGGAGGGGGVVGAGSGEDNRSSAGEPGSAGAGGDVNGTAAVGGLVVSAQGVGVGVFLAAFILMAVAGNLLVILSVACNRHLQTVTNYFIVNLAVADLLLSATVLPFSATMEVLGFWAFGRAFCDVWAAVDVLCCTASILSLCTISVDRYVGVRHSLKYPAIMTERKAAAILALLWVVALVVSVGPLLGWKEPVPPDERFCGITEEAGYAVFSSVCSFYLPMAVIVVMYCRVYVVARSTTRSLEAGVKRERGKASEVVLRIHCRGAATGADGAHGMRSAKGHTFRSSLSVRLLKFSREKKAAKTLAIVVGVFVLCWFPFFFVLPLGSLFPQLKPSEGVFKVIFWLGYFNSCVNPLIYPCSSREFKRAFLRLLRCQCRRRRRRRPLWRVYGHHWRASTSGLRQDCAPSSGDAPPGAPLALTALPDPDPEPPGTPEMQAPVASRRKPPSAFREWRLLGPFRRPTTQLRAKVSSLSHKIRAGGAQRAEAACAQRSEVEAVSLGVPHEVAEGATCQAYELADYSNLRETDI
Nature of the test: Adrenergic α1D radioligand binding ([3H]Prazosin). The note with it: compound at 0.1 μM; read-out: Percentage inhibition of ligand binding, Adrenergic (0.1 μM) a1D. As for the experimental part:
To evaluate in radioligand binding assays the activity of compounds of the invention, human recombinant adrenergic α1D receptor expressed in human embryonic kidney (HEK-293) cells (Kenny, B. et al, Br. J. Pharmacol. 115(6):981, 1995) in a 50 mM Tris-HCl buffer, pH 7.4, was used. Compounds of invention were incubated with 0.6 nM [^3H]Prazosin for 60 min at 25° C. Non-specific binding was estimated in the presence of 10 μM phentolamine. Receptor proteins were filtered and washed, the filters were then counted to determine [^3H]Prazosin specifically bound. Compounds were screened at 1 μM or lower, using 1% DMSO as vehicle. Biochemical assay results are presented as the percent inhibition of specific binding in Table 3.

In test [2] the target is T2, human recombinant adrenergic α2A receptor (Homo sapiens, UniProt P08913).
T2 construct: expressed in transfected cells; host or cells: insect Sf9 cells
T2 sequence (P08913 1-465): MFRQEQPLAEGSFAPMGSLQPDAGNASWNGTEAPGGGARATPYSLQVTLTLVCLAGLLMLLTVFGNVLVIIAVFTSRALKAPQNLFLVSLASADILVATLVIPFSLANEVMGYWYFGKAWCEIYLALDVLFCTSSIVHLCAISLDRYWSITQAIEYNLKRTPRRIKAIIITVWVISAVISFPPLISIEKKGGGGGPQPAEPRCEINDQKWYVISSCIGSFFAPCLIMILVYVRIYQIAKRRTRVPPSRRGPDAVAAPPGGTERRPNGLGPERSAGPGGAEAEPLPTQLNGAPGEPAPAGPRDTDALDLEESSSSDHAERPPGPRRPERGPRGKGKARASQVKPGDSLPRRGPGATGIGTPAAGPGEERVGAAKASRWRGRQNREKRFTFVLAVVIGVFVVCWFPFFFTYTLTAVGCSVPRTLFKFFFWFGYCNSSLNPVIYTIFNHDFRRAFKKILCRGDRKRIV
Kind of test: Adrenergic α2A radioligand binding ([3H]MK-912). The note with it: compound at 0.1 μM; read-out: Percentage inhibition of ligand binding, Adrenergic (0.1 μM) a2A. As for the experimental part:
To evaluate in radioligand binding assays the activity of compounds of the invention, human recombinant adrenergic α2A receptor expressed in insect Sf9 cells (Uhlen, S. et al, J. Pharmacol. Exp. Ther. 271:1558, 1994) in a modified Tris-HCl buffer (50 mM Tris-HCl, pH 7.4, 12.5 mM MgCl2, 2 mM EDTA) was used. Compounds of invention were incubated with 1 nM […] for 60 min at 25° C. MK912 is (2S-trans)-1,3,4,5′,6,6′,7,12b-octahydro-1′,3′-dimethyl-spiro[2H-benzofuro[2,3-a]quinolizine-2,4′(111)-pyrimidin]-2′(3′H)-one hydrochloride Non-specific binding was estimated in the presence of 10 μM WB-4101 (2-(2,6-Dimethoxyphenoxyethyl)aminomethyl-1,4-benzodioxane hydrochloride). Receptor proteins were filtered and washed, the filters were then counted to determine [^3H]MK-912 specifically bound. Compounds were screened at 1 μM or lower, using 1% DMSO as vehicle. Biochemical assay results are presented as the percent inhibition of specific binding in Table 3.

For test [3], the target named is T3, human recombinant serotonin (5-Hydroxytryptamine) 5-HT5A receptor (Homo sapiens, UniProt P47898).
T3 construct: expressed in transfected cells; host or cells: Chinese hamster ovary (CHO) K1 cells
Nature of the test: Serotonin 5-HT5A radioligand binding ([3H]LSD). The settings on record: compound at 0.1 μM; read-out: Percentage inhibition of ligand binding, Serotonin (0.1 μM) 5-HT5A. As for the experimental part:
To evaluate in radioligand binding assays the activity of compounds of the invention, human recombinant serotonin (5-Hydroxytryptamine) 5-HT5A receptor expressed in Chinese hamster ovary (CHO) K1 cells (Rees, S. et al, FEBS Lett. 355:242, 1994) in a modified Tris-HCl buffer (50 mM Tris-HCl, pH 7.4, 10 mM MgCl2, 0.5 mM EDTA) was used. Compounds of the invention were incubated with 1.7 nM [^3H]Lysergic acid diethylamide (LSD) for 60 min at 37° C. Non-specific binding was estimated in the presence of 100 μM Serotonin (5-HT). Receptor proteins were filtered and washed, the filters were counted to determine [^3H]LSD specifically bound. Compounds were screened at 1 μM or lower, using 1% DMSO as vehicle. Biochemical assay results are presented as the percent inhibition of specific binding in Table 4.

T3 sequence (P47898 whole entry): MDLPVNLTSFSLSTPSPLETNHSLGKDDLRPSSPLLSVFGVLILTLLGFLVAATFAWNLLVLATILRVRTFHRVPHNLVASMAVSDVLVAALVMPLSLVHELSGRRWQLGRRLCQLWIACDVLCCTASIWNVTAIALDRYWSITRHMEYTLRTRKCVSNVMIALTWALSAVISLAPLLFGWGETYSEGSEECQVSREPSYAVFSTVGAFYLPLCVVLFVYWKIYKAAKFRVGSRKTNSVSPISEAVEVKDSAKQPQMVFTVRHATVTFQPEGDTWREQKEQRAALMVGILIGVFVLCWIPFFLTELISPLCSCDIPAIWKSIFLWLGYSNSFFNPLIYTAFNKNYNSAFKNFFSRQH

For orientation: inhibition means the relative decrease from the control value, in per cent. As for `C#CCC1(C)CN(C)Cc2c1n(C)c1ccc(C)cc21` (stereo not drawn) [Compound 47, 2,4,5,8-tetramethyl-4-(prop-2-ynyl)-2,3,4,5-tetrahydro-1H-pyrido[4,3-b]indole], the inhibition at 0.1 µM in test [1] worked out at 10%; in test [2], 15%; in test [3] it was 34%.

In the case of `Cc1ccc2c(c1)c1c(n2C)C(C)(CCc2nc(-c3ccccc3)cs2)CN(C)C1` (stereo not drawn) [Compound 48], the results for the inhibition at 0.1 µM in test [1], in test [2] and in test [3] were 13%, 2% and -3%, respectively.
